Results on 1 compound are retold here after US20060135800A1, “2-Methylene-19,21-dinor-1alpha-hydroxy-bishomopregnacalciferol” (Wisconsin Alumni Research Foundation, priority 2004, published 2006).

The subject of series [1] is 24-hydroxylase (24Ohase) gene promoter in ROS 17/2.8 (bone) cells. In words: In vitro transcription assay (24-hydroxylase promoter luciferase reporter). The settings on record: stably transfected Ros17/2.8 (bone) cells; FIG. 3. It is filed as cell-based. As for the experimental part: Transcription activity was measured in ROS 17/2.8 (bone) cells that were stably transfected with a 24-hydroxylase (24Ohase) gene promoter upstream of a luciferase reporter gene (Arbour et al., 1998). Cells were given a range of doses. Sixteen hours after dosing the cells were harvested and luciferase activities were measured using a luminometer. RLU=relative luciferase units.

The nature of series [2]: Serum calcium in adult rats (hypercalcemia). The series is classed as in vivo, rat. Particulars: ip, FIG. 6. How it is done:
(§1) Adult, female Sprague-Dawley rats were obtained from Harlan (Madison, Wis.).
(§2) Animals were randomly assigned to treatment groups (5 animals/group). All doses were administered intraperitoneally in 100 microliters of propylene glycol. Four to seven consecutive doses were given approximately 24 hours apart. Dosing was initiated after the animals had been allowed to acclimate for at least one week.
(§3) Both control and test articles were administered by intraperitoneal injection in 100 microliters for 4-7 consecutive days spaced approximately 24 hours apart. 1,25(OH)2D3 was given for 4 consecutive days, whereas, the test drugs were given for 7 consecutive days.
Twenty-four hours after the final dose, approximately 1 ml of blood was collected from the tail artery of each experimental animal. The blood was allowed to coagulate at room temperature and then centrifuged at 3000×g for 15 minutes. The serum was transferred to a polypropylene tube and stored frozen at −20° C. The level of calcium was determined by diluting the serum into 0.1% lanthum chloride and measuring the absorbance on an atomic absorption spectrophotometer (Perkin Elmer Model 3110, Shelton, Conn.).

Series [3] in a line: Bone calcium mobilization (serum calcium). It is filed as in vivo, rat. Particulars: rats, ip; even at 100 times the dose of 1α,25-dihydroxyvitamin D3; FIG. 4. As for the experimental part:
(§4) Male, weanling Sprague-Dawley rats were placed on Diet 11 (0.47% Ca) diet +AEK for one week followed by Diet 11 (0.02% Ca) +AEK for 3 weeks. The rats were then switched to a diet containing 0.47% Ca for one week followed by two weeks on a diet containing 0.02% Ca. Dose administration began during the last week on 0.02% calcium diet. Four consecutive ip doses were given approximately 24 hours apart. Twenty-four hours after the last dose, blood was collected from the severed neck and the concentration of serum calcium determined as a measure of bone calcium mobilization. The first 10 cm of the intestine was also collected for intestinal calcium transport analysis using the everted gut sac method.

Series [4] in a line: Intestinal calcium transport (everted gut sac method). Particulars: rats, ip; even at 100 times the dose of 1α,25-dihydroxyvitamin D3; FIG. 5. The series is classed as in vivo, rat. As for the experimental part:
as §4

The test system of a further series is HL-60 cells. In words: HL-60 differentiation (nitro blue tetrazolium reduction). It is filed as cell-based, human. As for the experimental part: The study drugs were dissolved in ethanol and the concentrations determined using UV spectrophotometry. Serial dilutions were prepared so that a range of drug concentrations could be tested without changing the final concentration of ethanol (≦0.2%) present in the cell cultures.
Human promyelocytic leukemia (HL60) cells were grown in RPMI-1640 medium containing 10% fetal bovine serum. The cells were incubated at 37° C. in the presence of 5% CO2.
HL60 cells were plated at 1.2×10^5 cells/ml. Eighteen hours after plating, cells in duplicate were treated with drug. Four days later, the cells were harvested and a nitro blue tetrazolium reduction assay was performed (Collins et al., 1979; J. Exp. Med. 149:969-974). The percentage of differentiated cells was determined by counting a total of 200 cells and recording the number that contained intracellular black-blue formazan deposits. Verification of differentiation to monocytic cells was determined by measuring phagocytic activity (data not shown).

Series [5] can be described thus: PTH suppression in adult rats. The series is classed as in vivo, rat. The settings on record: normal rats, ip, 7 consecutive days; FIG. 7. As for the experimental part:
as §1, §2, §3
Twenty-four hours after the final dose, blood was collected from the tail artery and the concentration of bioactive serum PTH was measured using the rat BioActive Intact PTH ELISA Kit from Immutopics, Inc. (San Clemente, Calif.).

Series [6] concerns the target T1, full-length recombinant rat vitamin D receptor (Rattus norvegicus, UniProt P13053).
T1 construct: Full-length recombinant rat receptor was expressed in E. coli; His tag (C); made in house; host or cells: E. coli BL21(DE3) Codon Plus RIL
T1 sequence (P13053 1-423): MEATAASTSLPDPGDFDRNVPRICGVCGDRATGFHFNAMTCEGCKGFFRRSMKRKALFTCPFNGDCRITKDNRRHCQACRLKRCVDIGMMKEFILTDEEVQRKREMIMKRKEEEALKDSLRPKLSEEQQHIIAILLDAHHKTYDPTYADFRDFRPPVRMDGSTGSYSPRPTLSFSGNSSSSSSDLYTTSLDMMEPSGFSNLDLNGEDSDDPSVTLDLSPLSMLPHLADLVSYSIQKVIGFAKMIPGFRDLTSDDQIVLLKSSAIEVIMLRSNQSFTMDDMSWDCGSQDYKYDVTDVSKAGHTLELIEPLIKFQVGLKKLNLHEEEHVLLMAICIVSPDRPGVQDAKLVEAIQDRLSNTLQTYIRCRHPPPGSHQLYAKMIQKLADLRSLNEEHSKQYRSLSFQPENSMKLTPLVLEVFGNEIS
In words: Vitamin D receptor binding, competition with [3H]-1,25-(OH)2-D3. As for the experimental part:
Full-length recombinant rat receptor was expressed in E. coli BL21(DE3) Codon Plus RIL cells and purified to homogeneity using two different column chromatography systems. The first system was a nickel affinity resin that utilizes the C-terminal histidine tag on this protein. The protein that was eluted from this resin was further purified using ion exchange chromatography (S-Sepharose Fast Flow). Aliquots of the purified protein were quick frozen in liquid nitrogen and stored at −80° C. until use. For use in binding assays, the protein was diluted in TEDK50 (50 mM Tris, 1.5 mM EDTA, pH 7.4, 5 mM DTT, 150 mM KCl) with 0.1% Chaps detergent. The receptor protein and ligand concentration was optimized such that no more than 20% of the added radiolabeled ligand was bound to the receptor.
Unlabeled ligands were dissolved in ethanol and the concentrations determined using UV spectrophotometry (1,25(OH)2D3: molar extinction coefficient=18,200 and λmax=265 nm; Analogs: molar extinction coefficient=42,000 and λmax=252 nm). Radiolabeled ligand (^3H-1,25(OH)2D3, ˜159 Ci/mmole) was added in ethanol at a final concentration of 1 nM.
Radiolabeled and unlabeled ligands were added to 100 mcl of the diluted protein at a final ethanol concentration of ≦10%, mixed and incubated overnight on ice to reach binding equilibrium. […] Total binding was determined from the tubes containing only radiolabeled ligand.

“Also recorded” adds a separate entry of the source.

In the case of `C=C1[C@H](O)CC(=C/C=C2\CCC[C@]3(C)C(CCC)CC[C@@H]23)C[C@H]1O` (stereo in doubt) [2-methylene-19,21-dinor-1α-hydroxy-bishomopregnacalciferol], in series [1], the “stimulating transcription of a reporter gene” value was “active”. Further, the “raising serum calcium concentrations” value in series [2] was “absence of raising serum calcium concentrations”. Also, the “calcemic activity measured by bone calcium mobilization” value in series [3] was “very low ability to mobilize calcium from bone; also recorded: no calcemic activity”. Also, the “calcemic activity measured by intestinal calcium transport” value in series [4] was “very low intestinal calcium transport activity; also recorded: no calcemic activity”. The “inducing differentiation of HL-60 cells, times less active than 1α,25-dihydroxyvitamin D3” value in the series on HL-60 cells (relative to 1α,25-dihydroxyvitamin D3, FIG. 2) was “about 15 times”. Further, the “cell differentiation activity (in words)” value in the series with HL-60 cells (summary statement) is “relatively high cell differentiation activity”. Besides, in series [5], the “suppressing parathyroid hormone levels” value is given as “significant activity”. Also, the “binding to the recombinant vitamin D receptor, times less active than 1α,25-dihydroxyvitamin D3” value in series [6] (relative to 1α,25-dihydroxyvitamin D3, FIG. 1) is recorded as “about 5 times”. Further, the “binding to vitamin D receptors (in words)” value in series [6] (summary statement) was “relatively high binding”.
